Laboratory results from ChEMBL document CHEMBL1132732, “HINT predictive analysis of binding between retinol binding protein and hydrophobic ligands” (Bioorg Med Chem Lett, 2000).
pKd: −log10 of the molar value.

Key:
[1] = Partition coefficient (logP); type: physicochemical; conditions: octanol/water
[2] = Dissociation constant with retinol binding protein was determined

Row | logP [1] | pKd [2] | SMILES
1 | 6.31 | 7.05 | CCNC(=O)/C=C(C)/C=C/C=C(C)/C=C/C1=C(C)CCCC1(C)C
2 | 8.15 |  | C/C=C(C)/C=C/C=C(C)/C=C/C1=C(C)CCCC1(C)C
3 |  | 6.77 | CC1=C(/C=C/C(C)=C/C=C/C(C)=C/C(=O)Nc2ccc(O)cc2)C(C)(C)CCC1 [FENRETINIDE]
4 | 6.16 | 7.15 | CC1=C(/C=C/C(C)=C/C=C/C(C)=C/CO)C(C)(C)CCC1 [RETINOL]
